Test results as given in ChEMBL document CHEMBL1268922, “Xiamycin, a pentacyclic indolosesquiterpene with selective anti-HIV activity from a bacterial mangrove endophyte” (Bioorg Med Chem Lett, 2010).
≈ marks a conversion by molar mass, not a printed value. Calls of active or inactive are those of the source. No cut-off for these calls is given here.

Experiments:
Pseudomonas aeruginosa [1] = test: Antimicrobial activity against Pseudomonas aeruginosa SG137/B7 at 50 ug after 24 hrs by paper disk method; type: functional, organism-based
Escherichia coli = test: Antimicrobial activity against Escherichia coli SG458 at 50 ug after 24 hrs by paper disk method; type: functional, organism-based
[2] = system: Sporobolomyces salmonicolor; test: Antimicrobial activity against Sporobolomyces salmonicolor SBUG 549 at 50 ug after 24 hrs by paper disk method; type: functional, organism-based
Candida albicans = test: Antimicrobial activity against Candida albicans at 50 ug after 24 hrs by paper disk method; type: functional, organism-based
Penicillium chrysogenum = test: Antimicrobial activity against Penicillium notatum JP36 at 50 ug after 24 hrs by paper disk method; type: functional, organism-based
Bacillus subtilis = test: Antimicrobial activity against Bacillus subtilis ATCC 6633 at 50 ug after 24 hrs by paper disk method; type: functional; details: ATCC 6633, 24 h, read-out: IZ
Mycolicibacterium vaccae = test: Antimicrobial activity against Mycobacterium vaccae IMET 10670 at 50 ug after 24 hrs by paper disk method; type: functional; details: IMET 10670, 24 h, read-out: IZ
Pseudomonas aeruginosa [3] = test: Antimicrobial activity against Pseudomonas aeruginosa K799/61 at 50 ug after 24 hrs by paper disk method; type: functional; details: K799/61, 24 h, read-out: IZ
Staphylococcus aureus [4] = test: Antimicrobial activity against Staphylococcus aureus SG 511 at 50 ug after 24 hrs by paper disk method; type: functional; details: SG 511, 24 h, read-out: IZ
Staphylococcus aureus [5] = test: Antimicrobial activity against Staphylococcus aureus 134/94 R9 at 50 ug after 24 hrs by paper disk method; type: functional; details: 134/94 R9, 24 h, read-out: IZ
Enterococcus faecalis = test: Antimicrobial activity against Enterococcus faecalis 1528 R10 at 50 ug after 24 hrs by paper disk method; type: functional; details: 1528 R10, 24 h, read-out: IZ
HT-29 = test: Antitumor activity against human HT-29 by modified propidium iodide assay; type: functional, cell-based
[6] = Antitumor activity against human GXF251L by modified propidium iodide assay; type: functional
[7] = Antitumor activity against human LXFA 629L by modified propidium iodide assay; type: functional
[8] = Antitumor activity against human LXFL 529L by modified propidium iodide assay; type: functional
[9] = Antitumor activity against human MAXF 401NL by modified propidium iodide assay; type: functional
[10] = Antitumor activity against human MEXF 462NL by modified propidium iodide assay; type: functional
[11] = Antitumor activity against human OVXF 899L by modified propidium iodide assay; type: functional
[12] = Antitumor activity against human PAXF 1657L by modified propidium iodide assay; type: functional
CWR22R = test: Antitumor activity against human 22Rv1 by modified propidium iodide assay; type: functional, cell-based
[13] = Antitumor activity against human PXF 1752L by modified propidium iodide assay; type: functional
[14] = Antitumor activity against human RXF 486L by modified propidium iodide assay; type: functional
[15] = Antitumor activity against human UXF 1138L by modified propidium iodide assay; type: functional
[16] = system: Human immunodeficiency virus 1; test: Inhibition of HIV1 NL4-3 replication in CD4-CCR5 expressing human TZM-bl cells assessed as decrease in p24 antigen production; type: functional, organism-based
L929 = test: Antiproliferative activity against mouse L929 cells; type: functional
K562 = test: Antiproliferative activity against human K562 cells; type: functional
HeLa = test: Antiproliferative activity against human HeLa cells; type: functional
[17] = system: Human immunodeficiency virus 1; test: Inhibition of HIV1 NL4-3 replication in CD4-CXCR4 expressing human TZM-bl cells assessed as decrease in p24 antigen production; type: functional, organism-based

| Compound | Activity (Pseudomonas aeruginosa [1]) | Activity (Escherichia coli) | Activity [2] | Activity (Candida albicans) | Activity (Penicillium chrysogenum) | zone of inhibition at 50 µg/disc (Bacillus subtilis) | zone of inhibition at 50 µg/disc (Mycolicibacterium vaccae) | zone of inhibition at 50 µg/disc (Pseudomonas aeruginosa [3]) | zone of inhibition at 50 µg/disc (Staphylococcus aureus [4]) | zone of inhibition at 50 µg/disc (Staphylococcus aureus [5]) | zone of inhibition at 50 µg/disc (Enterococcus faecalis) | IC50 (HT-29) | IC50 [6] | IC50 [7] | IC50 [8] | IC50 [9] | IC50 [10] | IC50 [11] | IC50 [12] | IC50 (CWR22R) | further results |
| --- | --- | --- | --- | --- | --- | --- | --- | --- | --- | --- | --- | --- | --- | --- | --- | --- | --- | --- | --- | --- | --- |
| COC(=O)[C@]1(C)[C@@H](O)CC[C@]2(C)c3cc4c(cc3CC[C@@H]12)[nH]c1ccccc14 | inactive | inactive | inactive | inactive | Active | 13.5 mm | 14 mm | 15 mm | 15 mm | 14 mm | 12 mm | 9.97 µM | 7.63 µM | 8.52 µM | 10 µM | 10.8 µM | 9.62 µM | 11.7 µM | 12.4 µM | 9.87 µM | IC50 [13]: 12.8 µM; IC50 [14]: 11.1 µM; IC50 [15]: 8.54 µM |
| C[C@@]1(C(=O)O)[C@@H](O)CC[C@]2(C)c3cc4c(cc3CC[C@@H]12)[nH]c1ccccc14 [XIAMYCIN] | inactive | inactive | inactive | inactive | Active | 13.5 mm | 14 mm | 15 mm | 15 mm | 14 mm | 12 mm | > 30 µM | 30 µM | > 30 µM | > 30 µM | > 30 µM | > 30 µM | > 30 µM | > 30 µM | > 30 µM | inhibition [16]: Active; IC50 [13]: > 30 µM; IC50 [14]: > 30 µM; IC50 [15]: > 30 µM; GI50 (L929): 49.8 µg/mL (≈ 137 µM); GI50 (K562): 36.7 µg/mL (≈ 101 µM); CC50 (HeLa): 44.3 µg/mL (≈ 122 µM); inhibition [17]: Active |
